Nine compounds from US9023861B2, “Anticancer combination of artemisinin-based drugs and other chemotherapeutic agents” (Sigma-Tau Industrie Farmaceutiche Riunite, S.p.A., priority 2009, dated 2015) can be followed below.

Data set [1] concerns NCI-H460. The data set is described as follows: Synergistic interaction with DHA, combination index (Chou-Talalay, SRB). The data set is classed as cell-based. Particulars: drug in combination with DHA (1.0-20 μM), DHA 2 h before, drug 72 h. The protocol:
(§1) Tumour cells were treated for 2 h with DHA prior to exposure to further chemotherapeutic agents for 72 h. Cell survival was then evaluated through sulphorodamine B test. Data gathered from the various combination experiments were analyzed using Calcusyn software (Biosoft, Ferguson, Mo.) through the elaboration of isobolograms to determine if the combinations of DHA and the various chemotherapeutic agents were additive, synergistic or antagonistic.

The test system of data set [2] is A431. Described as above. It is filed as cell-based. Particulars: drug in combination with DHA (1.0-20 μM), DHA 2 h before, drug 72 h. The protocol:
as §1

Data set [3] concerns CAPAN-1. Described as above. Particulars: drug in combination with DHA (1.0-20 μM), DHA 2 h before, drug 72 h. The data set is classed as cell-based. On the procedure:
as §1

For data set [4], the system named is HCT116. Described as above. It is filed as cell-based. Particulars: drug in combination with DHA (1.0-20 μM), DHA 2 h before, drug 72 h. On the procedure: as §1
The test system of data set [5] is MDA-MB436. Described as above. It is filed as cell-based. Particulars: drug in combination with DHA (1.0-20 μM), DHA 2 h before, drug 72 h. On the procedure:
as §1

The test system of data set [6] is HCT116 colon cancer cells. Put plainly: In vivo antitumour activity, s.c. xenograft in CD1 nude mice. Particulars: DHA 200 mg/kg p.o., AZD2281 100 mg/kg i.p., qdx5/wx4w; for antitumor effect when given singularly / tolerability (body weight loss during the treatment): HCT116 xenograft mice, ABT-888 50 mg/kg; for BWL %: body weight loss; for BWL % / TVI % / TV ± SE: HCT116 xenograft, CD1 nude mice, ABT-888 50 mg/kg i.p.; for TVI %: tumour volume inhibition; for TV ± SE: tumour volume, evaluated at about 500 mm^3. On the procedure: HCT116 colon cancer cells were inoculated subcutaneously (s.c.) in the right flank of CD1 nude mice (5×10^6/0.1 ml of Medium 199). Treatments started three days after tumour injection. Mice were subdivided (8 mice/group) in the following experimental groups:
(§2) a) Vehicle (DMSO 10%) 10 ml/kg, i.p.;
b) DHA 200 mg/kg, p.o. qdx5/wx4w;
d) AZD2281+DHA (doses and schedules as above);
e) ABT-888 50 mg/kg, i.p. qdx5/wx4w;
f) ABT-888+DHA (doses and schedules as above).
DHA was administered immediately before AZD2281 or ABT-888.
The antitumour activity was evaluated according to the protocol reported hereinabove in example 3 when tumours reached a volume of about 500 mm^3.
Body weight recording was carried out to evaluate body weight loss according to the protocol reported hereinabove in example 3.

The test system of data set [7] is A2780. Put plainly: Synergistic interaction with DHA, combination index (Chou-Talalay, SRB). It is filed as cell-based. Particulars: drug in combination with DHA (1.0-20 μM), DHA 2 h before, drug 72 h. On the procedure:
(§3) Tumour cells were grown in RPMI 1640 containing 10% foetal bovine serum and treated as described in example 1 with the exception that instead of being exposed only to ART or DHA, the cell lines were treated with the drugs reported in table 2 in combination with DHA (from 1.0 μM to 20 μM, table 2). Tumour cells were treated for 2 h with DHA prior to exposure to further chemotherapeutic agents for 72 h. Cell survival was then evaluated through sulphorodamine B test. Data gathered from the various combination experiments were analyzed using Calcusyn software (Biosoft, Ferguson, Mo.) through the elaboration of isobolograms to determine if the combinations of DHA and the various chemotherapeutic agents were additive, synergistic or antagonistic. Viability assay results (SRB) were expressed as the fraction of cells killed when exposed to a single drug or to a drug combination with respect to the untreated cells. A combination index value (CI) was determined by means of the Chou-Talalay median effect method (T-C Chou, et al., Trends Pharmacol. Sci., 1983, 4, 450), wherein synergism can be defined when CI<1 and the lower the CI parameter value, the stronger the synergism (as defined by CalcuSyn 2.0 analyzer).

In data set [8] the test system is A2780/DDP. Described as above. Particulars: drug in combination with DHA (1.0-20 μM), DHA 2 h before, drug 72 h. The data set is classed as cell-based. On the procedure:
as §3

Data set [9] has as its system SW620. Described as above. It is filed as cell-based. Particulars: drug in combination with DHA (1.0-20 μM), DHA 2 h before, drug 72 h. The protocol: as §3
In data set [10] the test system is NCI-H460 non-small cell lung carcinoma. The data set is described as follows: In vivo antitumor activity, s.c. xenograft in CD1 nude mice. Particulars: DHA 200 mg/kg p.o., AZD2281 100 mg/kg i.p., qdx5/wx3w. On the procedure: NCI-H460 non-small cell lung carcinoma cells were inoculated subcutaneously (s.c.) in the right flank of CD1 nude mice (3×10^6/0.1 ml of Medium 199). Treatments started three days after tumour injection. Mice were subdivided (10 mice/group) in the following experimental groups:
as §2
b) DHA 200 mg/kg, p.o. qdx5/wx3w;
d) AZD2281+DHA (doses and schedules as above).
For the latter experiment DHA was administered immediately before AZD2281.
To evaluate the antitumour activity, tumour diameters were measured with a Vernier calliper according to the formula TV=d^2×D/2 where d and D are the shortest and longest diameters, respectively.
When tumours reached a volume of about 1500 mm^3, mice were sacrificed by cervical dislocation. The efficacy of the drug was assessed as the tumour volume inhibition according to the formula reported underneath: […]
Body weight recording was carried out to evaluate body weight loss as calculated in the equation underneath: […]
Wherein BW day x corresponds to the mean weight at day x of the experiment meanwhile BW day 1 corresponds to the mean weight at the first day of the experiment.

For data set [11], the system named is LoVo/Dx MDR. The data set is described as follows: Anti-proliferative activity, sulphorodamine B test. The data set is classed as cell-based. Particulars: LoVo/Dx MDR versus LoVo. On the procedure: The biological activity of DHA and ART on tumour cells survival was evaluated. The latter were seeded in 96-well tissue culture plates at approximately 10% confluence and were allowed to attach and recover for at least 24 h before being exposed to DHA or ART for 24 h at 37° C. They were then washed to remove DHA and ART and left to recover for 48 hours in medium culture. The medium culture was then removed and cells were washed three times with PBS. The plates were then incubated for on ice for 1 hour with 200 μl of PBS and 50 μl of cold 80% TCA before being washed with distilled water, dried on paper and finally at 40° C. for 5 minutes. 200 μl of 0.4% sulphorodamine B in 1% acetic acid were added and the incubation was prolonged for 30 minutes. Sulphorodamine B was removed, and the plates were washed 3 times with 1% acetic acid. They were finally dried on paper followed by standing at 40° C. for 5 minutes. Then 200 μl Tris 10 mM were added, the plates were kept under stirring for 20 minutes. Cell survival was determined as optical density at 540 nm by means of a Multiskan spectrofluorimeter. The amount of cells killed was expressed as the percentage decrease in sulphorodamine B binding compared to control cultures. IC50 were generated with their standard deviations by the ALLFIT program.

For `CCc1c2c(nc3ccc(O)cc13)-c1cc3c(c(=O)n1C2)COC(=O)[C@]3(O)CC` [SN-38], in data set [1], the “Combination index values ED50” value is listed as 0.81, the “Combination index values ED75” value stood at 0.68 and the “Combination index values ED90” value amounted to 0.59.
On to `NC(=O)c1cccc2cn(-c3ccc([C@@H]4CCCNC4)cc3)nc12` [MK-4827], for which, in data set [1], the “Combination index values ED50” value is recorded as 0.83, the “Combination index values ED75” value is listed as 0.83 and the “Combination index values ED90” value came to 0.84.
Consider `C[C@]1(c2nc3c(C(N)=O)cccc3[nH]2)CCCN1` [ABT-888], for which, in [2], the “Combination index values ED50” value came to 0.45, the “Combination index values ED75” value is recorded as 0.49 and the “Combination index values ED90” value amounted to 0.37. Moreover, in [3], the “Combination index values ED50” value is reported as 0.59, the “Combination index values ED75” value is 0.32 and the “Combination index values ED90” value came to 0.22. Moreover, in data set [4], the “Combination index values ED50” value worked out at 0.66, the “Combination index values ED75” value is given as 0.66 and the “Combination index values ED90” value came out at 0.66. For the same compound, in [5], the “Combination index values ED50” value stood at 0.42, the “Combination index values ED75” value is reported as 0.43 and the “Combination index values ED90” value amounted to 0.47. Also, in data set [1], the “Combination index values ED50” value is 0.78, the “Combination index values ED75” value turned out to be 0.61 and the “Combination index values ED90” value worked out at 0.49. Also, in data set [6], the “antitumor effect when given singularly” value is given as “None of them when given singularly did show any antitumor effect”, the “tolerability (body weight loss during the treatment)” value was “well-tolerated”, the BWL % is 0% and the TVI % worked out at 2%. In addition, in [6], the “TV ± SE” value was 395 ± 56.
Regarding `O=c1[nH]c2ccccc2c2ccccc12` [Phenanthridinone], in data set [1], the “Combination index values ED50” value was determined as 0.19, the “Combination index values ED75” value amounted to 0.20 and the “Combination index values ED90” value came to 0.22. For the same compound, in data set [7], the “Combination index values ED50” value came out at 0.003, the “Combination index values ED75” value is 0.05 and the “Combination index values ED90” value turned out to be 0.67.
Regarding `CC[C@@]1(O)C(=O)OCc2c1cc1n(c2=O)Cc2c-1nc1ccccc1c2/C=N\OCCN` [7-(2-amino)-ethoxyiminomethyl-camptothecin], in data set [1], the “Combination index values ED50” value is 0.39, the “Combination index values ED75” value is recorded as 0.24 and the “Combination index values ED90” value turned out to be 0.16.
For the compound `N.N.O=C([O-])C1(C(=O)[O-])CCC1.[Pt+2]` [Carboplatin, carboplatin], in data set [1], the “Combination index values ED50” value is on record as 0.53, the “Combination index values ED75” value was 0.71 and the “Combination index values ED90” value is 0.95.
Regarding `O=C(c1cc(Cc2n[nH]c(=O)c3ccccc23)ccc1F)N1CCN(C(=O)C2CC2)CC1` [AZD2281], the “Combination index values ED50” value in data set [2] is reported as 0.37; in data set [3] it was 0.35; in data set [4], 0.36; in data set [5], 0.28; in data set [1], 0.62; in [8], 0.63. Further, in data set [9], the “Combination index values ED50” value is listed as 0.60. Also, the “Combination index values ED75” value in data set [2] is recorded as 0.02; in [3], 0.49; in data set [4] it was 0.34; in data set [5], 0.30; in [1] it was 0.48; in [8] it was 0.68. The “Combination index values ED75” value in data set [9] was determined as 0.55. For the same compound, the “Combination index values ED90” value is reported as 0.02 in [2]; 0.73 in [3]; 0.31 in data set [4]; 0.68 in [5]; 0.42 in data set [1]; 0.63 in data set [8]. Moreover, in data set [9], the “Combination index values ED90” value was 0.66. For the same compound, the “antitumor effect when given singularly” value in data set [10] (NCI-H460 xenograft mice) is on record as “no antitumor effect”; in data set [6] it was “None of them when given singularly did show any antitumor effect”. The “tolerability (body weight loss during the treatment)” value in data set [10] (NCI-H460 xenograft mice) and in data set [6] was “well-tolerated” in each case. The BWL % amounted to 1% in data set [10] (body weight loss, NCI-H460 xenograft, CD1 nude mice) and 1% in [6]. In addition, the TVI % in data set [10] (tumour volume inhibition, NCI-H460 xenograft, CD1 nude mice) worked out at 1%; in data set [6], 18%. Moreover, the “TV ± SE” value is 1603 ± 171 in data set [10] (tumour volume, NCI-H460 xenograft, CD1 nude mice, sacrifice at about 1500 mm^3) and 328 ± 52 in data set [6].
In the case of `COc1cccc2c1C(=O)c1c(O)c3c(c(O)c1C2=O)C[C@@](O)(C(=O)CO)C[C@@H]3O[C@H]1C[C@H](N)[C@H](O)[C@H](C)O1` [Doxorubicin, doxorubicin], in data set [11], the resistance index is given as 63. Moreover, in [1], the “Combination index values ED50” value was determined as 0.76, the “Combination index values ED75” value worked out at 0.53 and the “Combination index values ED90” value was determined as 0.37.
With `N.N.[Cl][Pt][Cl]` [Cisplatin, cisplatin], in data set [1], the “Combination index values ED50” value amounted to 0.79, the “Combination index values ED75” value turned out to be 0.88 and the “Combination index values ED90” value turned out to be 0.98.
